*1 amine or outer side, *2 acyl side, *3 side chain or, on linkers, in order; H or OH if unused. Where a SMILES comes first, the peptide text is derived from it. [ ]: non-standard residue; d: D form. The star is where a group is joined. cisHyp = O=C(O)[C@@H]1C[C@H](O)CN1; Hydrocinnamoyl = O=C(CCc1ccccc1)*; Chg = N[C@H](C(=O)O)C1CCCCC1; Phg = N[C@H](C(=O)O)c1ccccc1; Tle = CC(C)(C)[C@H](N)C(=O)O; NMeV = CN[C@H](C(=O)O)C(C)C; αMeP = C[C@@]1(C(=O)O)CCCN1; Pip = O=C(O)[C@@H]1CCCCN1; 3Abz = Nc1cccc(C(=O)O)c1; ClZ = O=C(OCc1ccccc1Cl)*; Cbz = O=C(OCc1ccccc1)*; PhAc = O=C(Cc1ccccc1)*; CO = O=C([*:1])[*:2]; Bz = O=C(c1ccccc1)*; NHPh = c1ccc(N*)cc1; CH2F = FC*
What was measured:
[1] = target: MALT1 (Homo sapiens (Human), UniProt Q9UDY8); assay: Inhibition constants (Ki) for inhibition of MALT1; assay type: biochemical; settings: 100 nM MALT1 used for the assay
Sequence of MALT1 (Q9UDY8 whole entry): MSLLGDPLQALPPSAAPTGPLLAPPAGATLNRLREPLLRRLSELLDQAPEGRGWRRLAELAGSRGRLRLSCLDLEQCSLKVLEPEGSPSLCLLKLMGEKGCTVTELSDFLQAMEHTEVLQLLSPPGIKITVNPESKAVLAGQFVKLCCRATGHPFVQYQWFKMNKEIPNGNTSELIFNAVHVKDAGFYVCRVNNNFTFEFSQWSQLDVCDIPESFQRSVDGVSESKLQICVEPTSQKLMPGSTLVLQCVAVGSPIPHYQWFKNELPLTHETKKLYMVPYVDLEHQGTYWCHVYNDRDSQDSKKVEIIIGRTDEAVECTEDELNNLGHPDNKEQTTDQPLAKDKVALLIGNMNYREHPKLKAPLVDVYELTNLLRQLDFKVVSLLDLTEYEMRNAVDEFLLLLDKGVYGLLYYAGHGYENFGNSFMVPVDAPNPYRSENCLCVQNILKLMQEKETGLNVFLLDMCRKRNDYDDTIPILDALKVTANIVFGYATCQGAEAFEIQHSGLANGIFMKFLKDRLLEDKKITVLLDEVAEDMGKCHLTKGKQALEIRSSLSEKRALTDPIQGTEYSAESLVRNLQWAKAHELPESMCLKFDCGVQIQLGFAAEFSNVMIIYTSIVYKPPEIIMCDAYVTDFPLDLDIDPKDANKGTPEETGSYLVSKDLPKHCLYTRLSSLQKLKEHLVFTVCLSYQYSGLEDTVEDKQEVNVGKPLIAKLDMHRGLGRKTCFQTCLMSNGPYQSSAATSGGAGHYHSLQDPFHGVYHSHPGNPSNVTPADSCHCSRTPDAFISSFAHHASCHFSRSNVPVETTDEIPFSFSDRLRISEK
Experimental: For exemplary compounds of the disclosure, Ki for inhibition of MALT1 was measured (Table E11). A concentration of 100 nM MALT1 was used for the assay.

[2] = tested on: OCI-LY3; assay: Cell growth inhibition assay (CellTiter-Glo, 96 hours), OCI-LY3; assay type: cell-based, human; settings: OCI-LY3 cells, treated at t=0 and t=48 hours, ATP luminescence
Experimental: DLBCL cell lines were grown in exponential growth conditions during the 96 hours of treatment. Cells were treated twice: at t=0 and t=48 hours, and cell viability was determined by ATP quantification using a luminescent method ([…]-GLO, Promega, Madison, Wis.). Cell viability in drug-treated cells was normalized to vehicle controls (fractional viability) and results are given as 1-fractional viability.
Experiments were Performed in Triplicate.

Structure (SMILES)	Ki [1] [nM]	GI50 ([2]; Homo sapiens) [nM]	GI50 [2] [nM]
CC(C)(C)[C@H](NC(=O)OCc1ccccc1)C(=O)N1CCC[C@H]1C(=O)N[C@@H](CCCNC(=N)N)C(=O)CF [Compound 103] (Cbz-[Tle]-Pro-Arg-CH2F)	43	1440	–
N=C(N)NCCC[C@H](NC(=O)[C@@H]1CCCN1C(=O)[C@@H](NC(=O)OCc1ccccc1)c1ccccc1)C(=O)CF [Compound 104] (Cbz-[Phg]-Pro-Arg-CH2F)	154	8050	–
N=C(N)NCCC[C@H](NC(=O)[C@@H]1CCCN1C(=O)[C@@H](NC(=O)OCc1ccccc1)c1cccnc1)C(=O)CF [Compound 105]	55	4260	–
N=C(N)NCCC[C@H](NC(=O)[C@@H]1CCCN1C(=O)[C@H](NC(=O)OCc1ccccc1)c1cccnc1)C(=O)CF [Compound 106]	146	8430	–
N=C(N)NCCC[C@H](NC(=O)[C@@H]1CCCCN1C(=O)[C@@H](NC(=O)OCc1ccccc1)C1CCCCC1)C(=O)CF [Compound 108] (Cbz-[Chg]-[Pip]-Arg-CH2F)	37	1330	–
CC(C)[C@H](NC(=O)OCc1ccccc1)C(=O)N1C[C@@H](O)C[C@H]1C(=O)N[C@@H](CCCNC(=N)N)C(=O)CF [Compound 110] (Cbz-Val-[cisHyp]-Arg-CH2F)	49	1070	–
CC(C)[C@H](NC(=O)OCc1ccccc1)C(=O)N1CCC[C@@]1(C)C(=O)N[C@@H](CCCNC(=N)N)C(=O)CF [Compound 111] (Cbz-Val-[αMeP]-Arg-CH2F)	158	10500	–
CC(C)[C@H](NC(=O)c1ccccc1)C(=O)N1CCC[C@H]1C(=O)N[C@@H](CCCNC(=N)N)C(=O)CF [Compound 113] (Bz-Val-Pro-Arg-CH2F)	40	660	–
CC(C)[C@H](NC(=O)Cc1ccccc1)C(=O)N1CCC[C@H]1C(=O)N[C@@H](CCCNC(=N)N)C(=O)CF [Compound 117] (PhAc-Val-Pro-Arg-CH2F)	42	3370	–
CC(C)[C@H](NC(=O)Cc1cccc(Br)c1)C(=O)N1CCC[C@H]1C(=O)N[C@@H](CCCNC(=N)N)C(=O)CF [Compound 118]	46	2910	–
CC(C)[C@H](NC(=O)CCc1ccccc1)C(=O)N1CCC[C@H]1C(=O)N[C@@H](CCCNC(=N)N)C(=O)CF [Compound 119] (Hydrocinnamoyl-Val-Pro-Arg-CH2F)	43	1880	–
COc1ccccc1C(=O)N[C@H](C(=O)N1CCC[C@H]1C(=O)N[C@@H](CCCNC(=N)N)C(=O)CF)C(C)C [Compound 121]	109	7290	–
COc1cccc(C(=O)N[C@H](C(=O)N2CCC[C@H]2C(=O)N[C@@H](CCCNC(=N)N)C(=O)CF)C(C)C)c1 [Compound 122]	75	2000	–
COc1ccc(C(=O)N[C@H](C(=O)N2CCC[C@H]2C(=O)N[C@@H](CCCNC(=N)N)C(=O)CF)C(C)C)cc1 [Compound 123]	50	1670	–
CC(C)[C@H](NC(=O)c1cnn(C)c1)C(=O)N1CCC[C@H]1C(=O)N[C@@H](CCCNC(=N)N)C(=O)CF [Compound 124]	100	16800	–
Cc1nc(C(=O)N[C@H](C(=O)N2CCC[C@H]2C(=O)N[C@@H](CCCNC(=N)N)C(=O)CF)C(C)C)cs1 [Compound 125]	–	9650	–
CC(C)[C@H](NC(=O)c1ccc(C#N)cc1)C(=O)N1CCC[C@H]1C(=O)N[C@@H](CCCNC(=N)N)C(=O)CF [Compound 126]	60	6660	–
CC(C)[C@H](NC(=O)c1ccc(N2CCOCC2)cc1)C(=O)N1CCC[C@H]1C(=O)N[C@@H](CCCNC(=N)N)C(=O)CF [Compound 127]	75	> 20000	–
CC(C)[C@H](NC(=O)c1csc(N2CCOCC2)n1)C(=O)N1CCC[C@H]1C(=O)N[C@@H](CCCNC(=N)N)C(=O)CF [Compound 128]	111	> 20000	–
CC(C)[C@H](NC(=O)Nc1ccccc1)C(=O)N1CCC[C@H]1C(=O)N[C@@H](CCCNC(=N)N)C(=O)CF [Compound 129] ({NHPh-CO}-Val-Pro-Arg-CH2F)	52	1520	–
CC(C)[C@H](NS(=O)(=O)c1ccc(Br)cc1)C(=O)N1CCC[C@H]1C(=O)N[C@@H](CCCNC(=N)N)C(=O)CF [Compound 130]	–	3720	–
CC(C)[C@H](NC(=O)c1cccc(N2CCOCC2)c1)C(=O)N1CCC[C@H]1C(=O)N[C@@H](CCCNC(=N)N)C(=O)CF [Compound 131]	58	14500	–
CC(C)[C@H](NC(=O)c1cccc(N2CCN(C)CC2)c1)C(=O)N1CCC[C@H]1C(=O)N[C@@H](CCCNC(=N)N)C(=O)CF [Compound 132]	175	> 20000	–

Structure (SMILES)	Ki [1] [nM]	GI50 ([2]; Homo sapiens) [nM]	GI50 [2] [nM]
CC(=O)Nc1cccc(C(=O)N[C@H](C(=O)N2CCC[C@H]2C(=O)N[C@@H](CCCNC(=N)N)C(=O)CF)C(C)C)c1 [Compound 133] (Ac-[3Abz]VPR-CH2F)	54	> 20000	–
CC(C)[C@H](NC(=O)c1cccc(C#N)c1)C(=O)N1CCC[C@H]1C(=O)N[C@@H](CCCNC(=N)N)C(=O)CF [Compound 134]	39	3690	–
CC(C)[C@H](NC(=O)c1ccc(C(F)(F)F)cc1)C(=O)N1CCC[C@H]1C(=O)N[C@@H](CCCNC(=N)N)C(=O)CF [Compound 135]	132	120	–
CC(C)[C@H](NC(=O)c1ccc(Cl)cc1)C(=O)N1CCC[C@H]1C(=O)N[C@@H](CCCNC(=N)N)C(=O)CF [Compound 136]	67	1240	–
CC(C)[C@H](NC(=O)c1ccc(-c2ccccc2)cc1)C(=O)N1CCC[C@H]1C(=O)N[C@@H](CCCNC(=N)N)C(=O)CF [Compound 137]	30	550	–
CC(C)[C@H](NC(=O)c1ccc(Br)s1)C(=O)N1CCC[C@H]1C(=O)N[C@@H](CCCNC(=N)N)C(=O)CF [Compound 138]	–	1240	–
CC(C)[C@H](NC(=O)c1ncc(-c2ccccc2)s1)C(=O)N1CCC[C@H]1C(=O)N[C@@H](CCCNC(=N)N)C(=O)CF [Compound 139]	121	1750	–
CC(C)[C@H](NC(=O)OCc1ccccc1)C(=O)N[C@@H](CO)C(=O)N[C@@H](CCCNC(=N)N)C(=O)CF [Compound 140]	64	290	–
N=C(N)NCCC[C@H](NC(=O)[C@@H]1CCCN1C(=O)[C@H](Cc1cccnc1)NC(=O)c1ccc(Br)cc1)C(=O)CF [Compound 142]	–	14100	–
CC(C)[C@H](NC(=O)c1ccc(Br)c(C#N)c1)C(=O)N1CCC[C@H]1C(=O)N[C@@H](CCCNC(=N)N)C(=O)CF [Compound 146]	–	500	–
CC(C)[C@H](NC(=O)c1ccc(Br)cc1)C(=O)N[C@@H](CO)C(=O)N[C@@H](CCCNC(=N)N)C(=O)CF [Compound 149]	64	–	–
CC(C)[C@H](NC(=O)c1ccc2ccccc2c1)C(=O)N1CCC[C@H]1C(=O)N[C@@H](CCCNC(=N)N)C(=O)CF [Compound 152]	47	–	–
CC(C)c1ccc(C(=O)N[C@H](C(=O)N2CCC[C@H]2C(=O)N[C@@H](CCCNC(=N)N)C(=O)CF)C(C)C)cc1 [Compound 163]	–	270	–
CC(C)[C@H](NC(=O)Nc1cccc(Cl)c1)C(=O)N1CCC[C@H]1C(=O)N[C@H](CCCNC(=N)N)C(=O)CF [Compound 166]	557	–	–
CC(C)[C@H](NC(=O)OCc1ccc(Cl)cc1)C(=O)N1CCC[C@H]1C(=O)N[C@@H](CCCNC(=N)N)C(=O)CF [Compound 168]	32	–	–
CC(C)[C@H](NC(=O)OCc1cccc(Cl)c1)C(=O)N1CCC[C@H]1C(=O)N[C@@H](CCCNC(=N)N)C(=O)CF [Compound 169]	22	–	–
CC(C)[C@H](NC(=O)OCc1ccccc1Cl)C(=O)N1CCC[C@H]1C(=O)N[C@@H](CCCNC(=N)N)C(=O)CF [Compound 170] (ClZ-Val-Pro-Arg-CH2F)	27	–	–
N=C(N)NCCC[C@H](NC(=O)[C@@H]1C[C@@H](O)CN1C(=O)[C@@H](NC(=O)c1ccc(Br)cc1)C1CCCCC1)C(=O)CF [Compound 172]	–	60	–
CC(C)[C@H](NC(=O)c1ccc(Br)cc1)C(=O)N1C[C@H](C#N)C[C@H]1C(=O)N[C@@H](CCCNC(=N)N)C(=O)CF [Compound 177]	28	–	–
CC(C)[C@H](NC(=O)c1ccc(Br)cc1)C(=O)N[C@@H](C)C(=O)N[C@@H](CCCNC(=N)N)C(=O)CF [Compound 178]	38	–	–
N=C(N)NCCC[C@H](NC(=O)[C@@H]1CCCN1C(=O)[C@H](CC1CCCCC1)NC(=O)c1ccc(Br)cc1)C(=O)CF [Compound 187]	122	–	–
CC(C)[C@H](NC(=O)OCc1ccccc1)C(=O)N1CCC[C@H]1C(=O)N[C@@H](CCCNC1=NCCN1)C(=O)CF [Compound 201]	–	–	> 5000
CN[C@H](C(=O)N1CCC[C@H]1C(=O)N[C@@H](CCCNC(=N)N)C(=O)CF)C(C)C [Compound 205] (H-[NMeV]-Pro-Arg-CH2F)	> 200	–	–

From patent publication US10711036B2, “MALT1 inhibitors and uses thereof” (Cornell University, priority 2015, dated 2020)
